# According to patent publication US11208408B2, “Method of controlling scale in aqueous systems” (NOURYON CHEMICALS INTERNATIONAL B.V., priority 2019, dated 2021):
# Structures can show the parent of a compound that is named as a salt.
# Key:
# [1] = Fluorescent signal of starting amine, monomers and polymers at pH 7 (Example 22); assay type: physicochemical; conditions: 45 ppb of amine or monomer
# Protocol: The fluorescent signal for the starting N-(3-dimethylaminopropyl)-4-methoxy-1,8-naphthalilmide, the monomers from Monomer Example 3 and 3a (comparative) and the polymers of Polymer Example 20 (comparative) and Polymer Example 21 were measured at 10 ppm polymer and 45 ppb of N-(3-dimethylaminopropyl)-4-methoxy-1,8-naphthalilmide and monomers at pH 7.
# [2] = Fluorescent signal of polymers diluted to 10 ppm at pH 9 (Shimadzu RF-6000 spectro fluorimeter); assay type: physicochemical; conditions: non-monomer intermediate at 59 ppb
# Protocol: The polymer samples from Polymer Examples 1-4 each were diluted in water to 10 ppm and the pH was adjusted to 9, and the fluorescent signal was determined by excitation of the sample at the excitation wavelengths and measurement at the emission wavelengths as stated in Table 1 using a Shimadzu RF-6000 model spectro fluorimeter.
# The fluorescence signal for the polymer of Example 1 at 10 ppm and at pH 9 was measured. Also, the fluorescence intensity of the intermediate N-(3-dimethylaminopropyl)-4-methoxy-1,8-naphthalilmide non-monomer intermediate used to synthesize the monomer used in Example 1 was measured at pH 9 and at 59 ppb. The 59 ppb was used because this is the amount of monomer that would have been present in 10 ppm of polymer.
Compound,Emission wavelength λ [1] [nm],Excitation wavelength λ [1] [nm],Fluorescence intensity [1],Emission wavelength λ [2] [nm],Excitation wavelength λ [2] [nm],Fluorescence intensity [2]
"4-methoxy-N-(3-dimethylaminopropyl)-1,8-naphthalimide, 2-hydroxy-3-allyloxy propyl, quaternary salt [Monomer Example 3a, reference compound]",460,376,8312,,,
"C=CCOCC(O)C[N+](C)(C)CCCN1C(=O)c2cccc3c(OC)ccc(c23)C1=O (stereo not drawn) [Monomer Example 3, 4-methoxy-N-(3-dimethylaminopropyl)-1,8-naphthalimide, 1 or 2-hydroxy-3-allyloxy propyl, quaternary salt]",460,376,6774,,,
"COc1ccc2c3c(cccc13)C(=O)N(CCCN(C)C)C2=O [N-(3-dimethylaminopropyl)-4-methoxy-1,8-naphthalimide]",460,376,9850,462,376,7788
